Measurements taken from patent EP4711365A1 (Shanghai Hansoh Biomedical Co., Ltd., priority 2023, dated 2024).

Assays:
[1] = molecular target: T1, human IL-17RA and IL-17A proteins (Homo sapiens, UniProt Q16552); test: Competitive ELISA: blocking of binding between human IL-17RA and IL-17A; details: coated IL-17A, IL-17RA 5 nM
T1 sequence (Q16552 24-155): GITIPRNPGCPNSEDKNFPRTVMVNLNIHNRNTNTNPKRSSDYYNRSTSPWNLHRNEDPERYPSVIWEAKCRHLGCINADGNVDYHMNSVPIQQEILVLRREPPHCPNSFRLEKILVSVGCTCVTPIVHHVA
Protocol: Test example 1 Assay for competitive binding effect between compounds of the present invention and human IL-17 receptor for ligand
1. Experimental objective: to quantitatively determine the blocking effect of the compound on the binding between human IL-17RA and IL-17A proteins using competitive ELISA under in vitro conditions. 2. Experimental instruments and reagents: 2.1 Instruments:
2.2 Reagents: 3. Experimental method: IL-17A at 0.0625 µg/mL was coated in a 96-well plate at 4°C overnight at 100 µL per well. The plate was washed with PBST (300 µL/well x 4), and then blocked at 24°C for 2 h by adding 300 µL of ELISA Blocker blocking buffer to each well. The plate was further washed under the same conditions. 80 µL of PBS solution containing 1% BSA and 10 µL of 10× test compound solution were added to each well and mixed uniformly, and then the mixture was incubated at room temperature for 1 hour. After that, 10 µL of IL-17RA solution was added to a final concentration of 5 nM and mixed uniformly, and then the mixture was incubated at 24°C for 1 h. The corresponding concentration and volume of DMSO solution without compounds was added to positive control wells, and 1% BSA solution without IL-17RA was added to negative control wells.
After the plate was washed four times, 100 µL of the anti-Fc tag HRP-conjugated antibody was added, and the mixture was incubated at 37°C for 1 h. After the plate was washed four times, 100 µL of TMB substrate was added to each well, and the mixture was incubated at 37°C in the dark. After colour development was completed, the reaction was terminated by adding 100 µL of stop solution to each well, and the absorbance was measured at wavelengths of 450 nm and 570 nm using a microplate reader.
• 1) Inhibition rate (%): The original data (OD450-OD570) was calculated according to the following formula to obtain the inhibition rate. Inhibition rate% = [(average value of positive control wells - value of sample wells)/(average value of positive control wells - average value of negative control wells)] × 100, where the positive control wells are wells without compounds, and the negative control wells are wells without IL-17RA protein solution. • 2) Curve fitting: Log(inhibitor) vs. response -- Variable slope (four parameters) in GraphPad Prism 8 was used for fitting equation analysis of the compound concentration and the corresponding inhibition rate, and the curve was fitted to obtain the IC50 value of the compound. The fitting calculation equation was Y = Bottom + (Top - Bottom) / (1 + 10^((LogIC50 - X) * HillSlope)).

[2] = Pharmacokinetic assay in Wistar rats, oral; details: rat, plasma, 30 mg/kg
Protocol: Experimental objective: to study the pharmacokinetic behaviours of the compounds of the present invention in the body (plasma) of Wistar rats as test animals after oral administration at a dose of 30 mg/kg. • 2. Experimental scheme • 2.1 Test drugs: the examples of the present invention, prepared in house. • 2.2 Test animals: Wistar rats (female, 3 rats per group), from Beijing Vital River Laboratory Animal Technology Co., Ltd., with the animal production license no.
Solutol HS15 was melted in a water bath at 50-60°C, and then 50 mL of the melted Solutol HS15 was added to 450 mL of ultrapure water. The mixture was stirred and sonicated to obtain 500 mL of 10% Solutol HS15 solution. The compound was weighed, and according to the total administration volume, 30% PEG solution was first added. The mixture was shaken uniformly and sonicated until a clear solution was obtained. Subsequently, 70% (10% Solutol) in water was added, resulting in a colourless and clear solution with a concentration of 3.0 mg/mL.
2.4 Administration scheme: After overnight fasting, 3 female Wistar rats per group were administered orally (PO) at a dose of 30 mg/kg with an administration volume of 10 mL/kg.
• 1) To 50 uL of plasma sample was added 250 uL of acetonitrile for precipitation, and the mixture was mixed and then centrifuged at 4°C at 4000 rpm for 20 minutes. • 2) The treated supernatant solution was taken and subjected to LC/MS/MS to analyse the concentration of the test compounds. LC/MS/MS analysis instrument: AB Sciex API-4000 Qtrap-Shimadzu Controller-CBM20A.
• Chromatographic column: Waters Xbridge C18 3.5 um 2.1*50 mm • Mobile phase: solution A: 0.1% formic acid in water, and solution B: 0.1% formic acid in acetonitrile • Flow rate: 0.6 mL/min • Elution time: 0-3.5 minutes, with eluents as follows:

[3] = test system: Groα secretion by HT-29 cells; test: Inhibition of Groα secretion by HT-29 cells stimulated with IL-17A (ELISA); assay type: cell-based, Human; details: Homo sapiens, IL-17A 30 ng/ml, 48 hours, Groα in supernatant
Procedure, shortened: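 HT-29 cells (10,000/well) were cultured overnight, then given compound pre-mixed 30 min with IL-17A (final 30 ng/ml) and incubated 48 hours at 37°C. Groα in supernatant was measured by ELISA at 450 nm; inhibition relative to IL-17A-stimulated control, IC50 from four-parameter fit.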

Structure (SMILES): [2H]C([2H])([2H])OC1(C)CCN(C[C@H](c2cnc(NC(=O)[C@@H](NC(=O)C3(F)CC3)[C@H]3CC[C@H](C)CC3)s2)N2CC(F)(F)CNC2=O)CC1 [Example 787]
- IC50 [1]: 9 nM
- AUC(0-t) [2]: 18800 ng·h/mL
- Cmax [2]: 2330 ng/mL
- Tmax [2]: 2 h
- half-life [2]: 2.4 h
- IC50 [3]: 8.9 nM

Structure (SMILES): CCc1nonc1C(=O)N[C@H](C(=O)Nc1ncc([C@@H](COC)N2CC(F)(F)CNC2=O)s1)[C@H]1CC[C@H](C)CC1 [Example 556]
- IC50 [1]: 1.8 nM
- AUC(0-t) [2]: 22100 ng·h/mL
- Cmax [2]: 2390 ng/mL
- Tmax [2]: 2 h
- half-life [2]: 2.3 h
- IC50 [3]: 4.6 nM

Structure (SMILES): C[C@H]1CC(F)(F)CCN1C[C@H](c1cnc(NC(=O)[C@@H](NC(=O)C2(F)CC2)[C@H]2CC[C@H](C)CC2)s1)N1CC(F)(F)CNC1=O [Example 764]
- IC50 [1]: 7 nM
- AUC(0-t) [2]: 11700 ng·h/mL
- Cmax [2]: 1090 ng/mL
- Tmax [2]: 4 h
- half-life [2]: 4.1 h
- IC50 [3]: 7 nM

Structure (SMILES): C[C@H]1COCCN1C[C@H](c1cnc(NC(=O)[C@@H](NC(=O)C2(F)CC2)[C@H]2CC[C@H](C)CC2)s1)N1CC(F)(F)CNC1=O [Example 1014, N-((S)-2-((5-((R)-1-(5,5-difluoro-2-oxotetrahydropyrimidin-1(2H)-yl)-2-((S)-3-methylmorpholino)ethyl)thiazol-2-yl)amino)-1-((1r,4S)-4-methylcyclohexyl)-2-oxoethyl)-1-fluorocyclopropane-1-carboxamide]
- IC50 [1]: 7 nM
- AUC(0-t) [2]: 12800 ng·h/mL
- Cmax [2]: 1670 ng/mL
- Tmax [2]: 4 h
- half-life [2]: 2.4 h
- IC50 [3]: 8 nM

Structure (SMILES): C[C@H]1CC[C@H]([C@H](NC(=O)C2(F)CC2)C(=O)Nc2ncc([C@@H](CN3CCC(C(F)F)CC3)N3CC(F)(F)CNC3=O)s2)CC1 [Example 770]
- IC50 [1]: 7 nM
- AUC(0-t) [2]: 11600 ng·h/mL
- Cmax [2]: 1350 ng/mL
- Tmax [2]: 4 h
- half-life [2]: 3.5 h
- IC50 [3]: 3.4 nM

Structure (SMILES): C[C@H]1CC[C@H]([C@H](NC(=O)C2(F)CC2)C(=O)Nc2ncc([C@@H](CN3CCC(F)(F)CC3)N3CC(F)(F)CNC3=O)s2)CC1 [Example 763, N-((S)-2-((5-((R)-1-(5,5-difluoro-2-oxotetrahydropyrimidin-1(2H)-yl)-2-(4,4-difluoropiperidin-1-yl)ethyl)thiazol-2-yl)amino)-1-((1r,4S)-4-methylcyclohexyl)-2-oxoethyl)-1-fluorocyclopropane-1-carboxamide]
- IC50 [1]: 6 nM
- AUC(0-t) [2]: 15900 ng·h/mL
- Cmax [2]: 1480 ng/mL
- Tmax [2]: 4 h
- half-life [2]: 3.4 h
- IC50 [3]: 4.5 nM

Structure (SMILES): CC1CCC(C(NC(=O)C2(F)CC2)C(=O)Nc2ncc(C(CN3C(C)COCC3C)N3CC(F)(F)CNC3=O)s2)CC1 (stereo not drawn) [Example 739]
- IC50 [1]: 5 nM
- AUC(0-t) [2]: 10300 ng·h/mL
- Cmax [2]: 1940 ng/mL
- Tmax [2]: 2 h
- half-life [2]: 2.5 h
- IC50 [3]: 3 nM

Structure (SMILES): C[C@@H]1CN(C[C@H](c2cnc(NC(=O)[C@@H](NC(=O)C3(F)CC3)[C@H]3CC[C@H](C)CC3)s2)N2CC(F)(F)CNC2=O)CCO1 [Example 1012, N-((S)-2-((5-((R)-1-(5,5-difluoro-2-oxotetrahydropyrimidin-1(2H)-yl)-2-((R)-2-methylmorpholino)ethyl)thiazol-2-yl)amino)-1-((1r,4S)-4-methylcyclohexyl)-2-oxoethyl)-1-fluorocyclopropane-1-carboxamide]
- IC50 [1]: 6 nM
- AUC(0-t) [2]: 14200 ng·h/mL
- Cmax [2]: 2220 ng/mL
- Tmax [2]: 2 h
- half-life [2]: 2.3 h
- IC50 [3]: 3 nM

Structure (SMILES): C[C@@H]1CN(C[C@H](c2cnc(NC(=O)[C@@H](NC(=O)C3(F)CC3)[C@H]3CC[C@H](C)CC3)s2)N2CC(F)(F)CNC2=O)[C@H](C)CO1 [Example 736, N-((S)-2-((5-((R)-1-(5,5-difluoro-2-oxotetrahydropyrimidin-1(2H)-yl)-2-((2R,5R)-2,5-dimethylmorpholino)ethyl)thiazol-2-yl)amino)-1-((1r,4S)-4-methylcyclohexyl)-2-oxoethyl)-1-fluorocyclopropane-1-carboxamide]
- IC50 [1]: 3.6 nM
- AUC(0-t) [2]: 10800 ng·h/mL
- Cmax [2]: 1310 ng/mL
- Tmax [2]: 2 h
- half-life [2]: 2.4 h
- IC50 [3]: 1 nM

Structure (SMILES): C[C@@H]1CN(C[C@H](c2cnc(NC(=O)[C@@H](NC(=O)C3(F)CC3)[C@H]3CC[C@H](C)CC3)s2)N2CC(F)(F)CNC2=O)[C@@H](C)CO1 [Example 731]
- IC50 [1]: 6.6 nM
- AUC(0-t) [2]: 14300 ng·h/mL
- Cmax [2]: 1840 ng/mL
- Tmax [2]: 2 h
- half-life [2]: 2.3 h
- IC50 [3]: 6 nM
